Measured values reported in article PMC12022901 (Frontiers in Pharmacology, 2025).

Key:
[1] = parameters: method as in Brown, 2014; details: ref Brown, 2014; cited from earlier work
[2] = cited from earlier work
[3] = tested on: Coagulation markers (activated partial thromboplastin time and international normalized ratio); test: Coagulation markers measured 3 h post dose; type: in vivo, human (healthy volunteers)
CYP3A = CYP3A activity assessed by pharmacokinetics of microdosed midazolam (limited sampling, AUC2-4, eCLmet)
Description: We simultaneously quantified the effect on CYP3A activity with an oral midazolam microdose (30 µg) (Figure 1).
Carbamazepine, gabapentin, and pregabalin were dosed to steady-state during a treatment period of 21 d for carbamazepine, 13 d for gabapentin, and 21 d for pregabalin, followed by the evaluation of their perpetrator effects. Steady-state was ensured until the last blood sample was drawn. Carbamazepine was titrated to a maximum dose of 200 mg twice a day, if possible. If this dose could not be reached due to adverse events, carbamazepine was titrated to therapeutic plasma concentrations (5–10 μg/mL), with the lower range chosen to ensure the safety of the participants. Gabapentin was administered at a dose of 400 mg three times a day and pregabalin at a dose of 300 mg twice a day. Single-dose pharmacokinetics of the microdosed FXaI were assessed at baseline and at the end of the above mentioned treatment period, at steady-state of the perpetrator.
All collected samples were processed within 20 min and plasma was stored at ≤ −20°C until analysis.
Non-compartmental analyses were conducted to assess the pharmacokinetics of the FXaI and midazolam utilizing Phoenix WinNonlin 8.3 (Certara, Inc., Princeton, NJ, United States). Cmax and the time to reach Cmax (tmax) were directly obtained from the concentration data. The area under the concentration-time curve from 0 to infinity ( AUC∞ ) was determined using the log-linear trapezoidal rule with extrapolation to infinity. The half-life (t1/2) was calculated as ln2/λz , with the elimination rate constant λz being estimated utilizing log-linear regression of the elimination phase. Apparent oral CL (CL/F) and volume of distribution (Vz/F) were calculated using standard equations for non-compartmental analysis.

[4] = Safety: adverse events in the trial cohorts; details: cohort of the named antiepileptic drug
[5] = Pharmacokinetics of factor Xa inhibitors at baseline and at pregabalin steady-state (open-label fixed-sequence DDI trial); details: human, in vivo, po, oral microdose cocktail, GM
Description: (§1) A p-value < 0.05 was considered significant.

[6] = Pharmacokinetics of factor Xa inhibitors at baseline and at gabapentin steady-state (open-label fixed-sequence DDI trial); details: human, in vivo, po, oral microdose cocktail, GM
Description: as §1

clinical = details: for Vd/F: Vz/F; for half-life: t1/2, oral microdose cocktail; for exposure (AUC) during carbamazepine relative to baseline: microdosed FXaI
[7] = healthy volunteers, 7-d rifampin treatment, ref Mendell et al., 2015
[8] = 180 min after edoxaban 60 mg alone
[9] = 180 min after edoxaban 60 mg with carbamazepine
[10] = carbamazepine cohort, at carbamazepine steady-state, with edoxaban 60 mg
[11] = carbamazepine cohort, at carbamazepine steady-state, with microdosed FXaI
[12] = carbamazepine cohort, baseline, with edoxaban 60 mg
[13] = gabapentin cohort, at gabapentin steady-state, with edoxaban 60 mg
[14] = gabapentin cohort, at gabapentin steady-state, with microdosed FXaI
[15] = gabapentin cohort, baseline, with edoxaban 60 mg
[16] = pregabalin cohort, at pregabalin steady-state, with edoxaban 60 mg
[17] = pregabalin cohort, at pregabalin steady-state, with microdosed FXaI
[18] = pregabalin cohort, baseline, with edoxaban 60 mg
[19] = human, in vivo, po, oral microdose cocktail (25 µg apixaban, 50 µg edoxaban, 25 µg rivaroxaban), baseline, GM
[20] = human, in vivo, po, oral microdose cocktail, during carbamazepine steady-state, GM
[21] = human, in vivo, po, oral microdose cocktail, baseline, GM
[22] = human, in vivo, po, oral microdose cocktail, at carbamazepine steady-state, GM
[23] = human, in vivo, po, at carbamazepine steady-state, GM
[24] = human, in vivo, po, baseline, GM
[25] = oral microdose cocktail, at carbamazepine steady-state, GM
[26] = oral microdose cocktail, baseline, GM

For CN1CCc2nc(C(=O)N[C@@H]3C[C@@H](C(=O)O)CC[C@@H]3NC(=O)C(=O)Nc3ccc(Cl)cn3)sc2C1 [Edoxaban M-4], the “anticoagulant effects of M-4 and edoxaban” value [1] is given as “comparable anticoagulant effects”, the AUC increase [2, 7] is given as 2.86 fold and the Cmax increase [2, 7] is given as 5.06 fold.

For CN1CCc2nc(C(=O)N[C@@H]3C[C@@H](C(=O)N(C)C)CC[C@@H]3NC(=O)C(=O)Nc3ccc(Cl)cn3)sc2C1 [Edoxaban, edoxaban], the AUC reduction ([2]; co-administration with rifampin, ref Lixiana, 2017) is listed as “up to 35%”, the “INR, mean” value [3, 8] is listed as 1.23 and the “aPTT, mean” value [3, 8] is listed as 33.63. For the same molecule, the “INR, mean” value [3, 9] was 1.14, the “aPTT, mean” value [3, 9] was 29.56 and the “coagulation changes induced by edoxaban” value ([3]; therapeutic dose or microdose, with gabapentin or pregabalin (data not shown)) was “not influenced”.

For Cc1ncc2n1-c1ccc(Cl)cc1C(c1ccccc1F)=NC2 [Midazolam, midazolam], the eCLmet (CYP3A; [10]) was 5654 mL/h, the “eCLmet GMR to baseline” value (CYP3A; [10]) was 5.54 and the eCLmet (CYP3A; [11]) was 5636 mL/h. For the same molecule, the “eCLmet GMR to baseline” value (CYP3A; [11]) was 5.52, the eCLmet (CYP3A; [12]) was 997 mL/h and the “eCLmet GMR to baseline” value (CYP3A; [12]) was 0.98. For the same molecule, the eCLmet (CYP3A; carbamazepine cohort, baseline, with microdosed FXaI) was 1021 mL/h, the “decrease of midazolam AUC2-4” value (CYP3A; co-administration of carbamazepine) was 82% and the eCLmet (CYP3A; [13]) was 923 mL/h. The “eCLmet GMR to baseline” value (CYP3A; [13]) was 0.99, the eCLmet (CYP3A; [14]) was 957 mL/h and the “eCLmet GMR to baseline” value (CYP3A; [14]) was 1.02. The eCLmet (CYP3A; [15]) was 931 mL/h, the “eCLmet GMR to baseline” value (CYP3A; [15]) was 1.0 and the eCLmet (CYP3A; gabapentin cohort, baseline, with microdosed FXaI) was 936 mL/h. The “effect on midazolam pharmacokinetics” value (CYP3A; gabapentin steady-state) was “did not alter”, the eCLmet (CYP3A; [16]) was 1306 mL/h and the “eCLmet ratio to baseline” value (CYP3A; [16]) was 1.23. The eCLmet (CYP3A; [17]) was 1198 mL/h, the “eCLmet ratio to baseline” value (CYP3A; [17]) was 1.13 and the eCLmet (CYP3A; [18]) was 1201 mL/h. For the same molecule, the “eCLmet ratio to baseline” value (CYP3A; [18]) was 1.13, the eCLmet (CYP3A; pregabalin cohort, baseline, with microdosed FXaI) was 1061 mL/h and the “effect on midazolam pharmacokinetics” value (CYP3A; pregabalin steady-state) was “did not alter”.

In the case of NC(=O)N1c2ccccc2C=Cc2ccccc21 [carbamazepine], the “adverse events deemed possibly related to the trial medication” value (“adverse events deemed possibly related” below) [4] is reported as 19, the adverse events overall [4] is reported as 29 and the “participants with adverse events” value [4] is reported as 12 of 13. The “severe or serious adverse events” value [4] was “none was serious, one was severe”.

With NCC1(CC(=O)O)CCCCC1 [gabapentin] the “adverse events deemed possibly related” value [4] was 21, the adverse events overall [4] was 39 and the “participants with adverse events” value [4] was 11 of 11. The “severe or serious adverse events” value [4] was “none was severe or serious”.

In the case of CC(C)C[C@H](CN)CC(=O)O [pregabalin], the “adverse events deemed possibly related” value [4] is reported as 25, the adverse events overall [4] is reported as 37 and the “participants with adverse events” value [4] is reported as 11 of 12. The “severe or serious adverse events” value [4] was “none was severe or serious”.

COc1ccc(-n2nc(C(N)=O)c3c2C(=O)N(c2ccc(N4CCCCC4=O)cc2)CC3)cc1 [µ-apixaban, apixaban] gave an AUC(0-inf) ([5]; before pregabalin) of 6.2 ng·h/mL, an AUC(0-inf) ([5]; during pregabalin steady-state) of 6.07 ng·h/mL and a Cmax ([5]; before pregabalin) of 0.782 ng/mL. The Cmax ([5]; during pregabalin steady-state) was 0.775 ng/mL, the AUC(0-inf) ([6]; baseline) was 6.95 ng·h/mL and the AUC(0-inf) ([6]; during gabapentin steady-state) was 6.48 ng·h/mL. The Cmax ([6]; baseline) was 0.822 ng/mL, the Cmax ([6]; during gabapentin steady-state) was 0.775 ng/mL and the AUC(0-inf) (clinical; [19]) was 5.9 ng·h/mL. For the same molecule, the AUC(0-inf) (clinical; [20]) was 3.92 ng·h/mL, the Cmax (clinical; [21]) was 0.719 ng/mL and the Cmax (clinical; [20]) was 0.634 ng/mL. The Vd/F (clinical; [22]) was 36 L, the Vd/F (clinical; [21]) was 36 L and the half-life (clinical; [23]) was 3.95 h. For the same molecule, the half-life (clinical; [24]) was 5.97 h, the “exposure (AUC) during carbamazepine relative to baseline” value (clinical) was 66% and the tmax (clinical; oral microdose cocktail (solution), baseline, GM) was 1.6 h. For the same molecule, the CL/F (clinical; [25]) was 6.4 L/h, the tmax (clinical; [25]) was 1.72 h and the CL/F (clinical; [26]) was 4.2 L/h. The reduction in exposure ([2]; combined use with inducers of both CYP3A4 and P-gp such as carbamazepine, ref Eliquis, 2024) was about 50%.

In the case of O=C(NC[C@H]1CN(c2ccc(N3CCOCC3=O)cc2)C(=O)O1)c1ccc(Cl)s1 [µ-rivaroxaban, rivaroxaban], the AUC(0-inf) ([5]; before pregabalin) is reported as 3.08 ng·h/mL, the AUC(0-inf) ([5]; during pregabalin steady-state) is reported as 3.03 ng·h/mL and the Cmax ([5]; before pregabalin) is reported as 0.783 ng/mL. It also gave a Cmax ([5]; during pregabalin steady-state) of 0.744 ng/mL, an AUC(0-inf) ([6]; baseline) of 3.23 ng·h/mL and an AUC(0-inf) ([6]; during gabapentin steady-state) of 2.98 ng·h/mL. The Cmax ([6]; baseline) was 0.718 ng/mL, the Cmax ([6]; during gabapentin steady-state) was 0.688 ng/mL and the tmax (clinical; human, in vivo, po) was 0.817 h. For the same molecule, the AUC(0-inf) (clinical; [19]) was 3.1 ng·h/mL, the AUC(0-inf) (clinical; [20]) was 1.73 ng·h/mL and the Cmax (clinical; [21]) was 0.695 ng/mL. For the same molecule, the Cmax (clinical; [20]) was 0.524 ng/mL, the Vd/F (clinical; [22]) was 63 L and the Vd/F (clinical; [21]) was 61 L. The half-life (clinical; [23]) was 3.02 h, the half-life (clinical; [24]) was 5.23 h and the “exposure (AUC) during carbamazepine relative to baseline” value (clinical) was 56%. It also gave a CL/F (clinical; [25]) of 14 L/h, a tmax (clinical; [25]) of 0.817 h and a CL/F (clinical; [26]) of 8.0 L/h.
